Test system: Raji
Test: Cytotoxicity against human Raji cells expressing human LAG3 assessed as reduction in cell viability incubated for 1 hrs by trypan blue staining based analysis
Assay type: toxicity

Compound	Activity
O=C(O)c1cccc(C(=O)NC2CCN(c3ccc(C(F)(F)F)cn3)CC2)c1	Non-Toxic
Cc1nc(C(F)(F)F)nc(-c2cc(NCCN(C)C)nc3[nH]ccc23)c1C	Non-Toxic

From ChEMBL document CHEMBL6127143, “From Virtual Screens to Cellular Target Engagement: New Small Molecule Ligands for the Immune Checkpoint LAG-3” (ACS Med Chem Lett, 2024)
